Each compound was assayed against T1, rat NaPi-2b (Rattus norvegicus, UniProt Q9JJ09) (assay: Sodium-dependent phosphate uptake of Xenopus oocytes which expressed NaPi-2b (32P)). Conditions: Xenopus oocytes expressing rat NaPi-2b, 32P radioactive phosphorus; read-out: IC50 (phosphate uptake inhibitory activity).
T1 construct: expressed in transfected cells; host or cells: Xenopus oocytes injected with cRNA
T1 sequence (Q9JJ09 1-695): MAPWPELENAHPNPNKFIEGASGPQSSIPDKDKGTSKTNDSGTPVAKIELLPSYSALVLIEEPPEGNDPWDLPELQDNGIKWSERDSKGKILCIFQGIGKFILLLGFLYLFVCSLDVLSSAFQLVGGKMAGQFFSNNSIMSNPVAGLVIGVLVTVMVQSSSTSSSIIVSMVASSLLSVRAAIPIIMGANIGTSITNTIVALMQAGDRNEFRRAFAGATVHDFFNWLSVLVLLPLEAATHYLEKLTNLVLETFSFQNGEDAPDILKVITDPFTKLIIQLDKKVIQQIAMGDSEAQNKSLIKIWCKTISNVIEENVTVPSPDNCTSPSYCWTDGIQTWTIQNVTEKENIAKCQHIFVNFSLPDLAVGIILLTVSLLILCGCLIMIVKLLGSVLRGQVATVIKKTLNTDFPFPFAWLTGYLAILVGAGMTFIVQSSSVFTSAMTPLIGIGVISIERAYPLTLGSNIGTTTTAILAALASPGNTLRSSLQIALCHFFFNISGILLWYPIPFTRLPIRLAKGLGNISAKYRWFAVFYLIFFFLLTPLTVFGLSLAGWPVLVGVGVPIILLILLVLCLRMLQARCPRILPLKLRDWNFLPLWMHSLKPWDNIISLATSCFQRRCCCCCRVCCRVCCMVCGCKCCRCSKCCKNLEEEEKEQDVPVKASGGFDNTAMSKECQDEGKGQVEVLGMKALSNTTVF
Assay type: cell-based
How it was run: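 Rat small-intestine NaPi-2b cRNA injected into Xenopus oocytes, expressed for 2 days. Sodium-dependent phosphate uptake measured with 32P; % inhibition at 300 and 100 μM taken from the same inhibition curve.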
Work on COc1ccc(C(=O)Nc2ccccc2C(=O)N/N=C/c2cccc(Oc3cccc(C(F)(F)F)c3)c2)cc1OC [Compound 54, 3,4-Dimethoxy-N-{2-[3-(3-trifluoromethyl-phenoxy)-benzylidene-hydrazinocarbonyl]-phenyl}-benzamide] yielded an IC50 of 6.45 µM.
With COc1cc(OC)cc(C(=O)Nc2ccccc2C(=O)N/N=C/c2cccc(F)c2)c1 [Compound 55, N-[2-(3-Fluoro-benzylidene-hydrazinocarbonyl)-phenyl]-3,5-dimethoxy-benzamide] the IC50 was 0.86 µM.
For COCCOc1cc(NC(=O)c2cccc(CSCC(O)CO)c2)c(C(=O)N/N=C/c2ccc(Cl)c(C(F)(F)F)c2)cc1OCCOC (stereo not shown) [Compound 1016, N-[2-(4-Chloro-3-trifluoromethyl-benzylidene-hydrazinocarbonyl)-4,5-bis-(2-methoxy-ethoxy)-phenyl]-3-(2,3-dihydroxy-propylsulfanylmethyl)-benzamide], the IC50 was 9.23 µM.
CCN(CC)CCN(C)Cc1cccc(C(=O)Nc2ccc(OCCCCF)cc2C(=O)N/N=C/c2ccc(OC)cc2)c1 [Compound 1061, 3-{[(2-Diethylamino-ethyl)-methyl-amino]-methyl}-N-[4-(4-fluoro-butoxy)-2-(4-methoxy-benzylidene-hydrazinocarbonyl)-phenyl]-benzamide] gave an IC50 of 1.99 µM.
COc1ccc(/C=N/NC(=O)c2cc(OCCN3CCCCC3)ccc2NC(=O)c2cccc(CSCCO)c2)cc1 [Compound 1045, 3-(2-Hydroxy-ethylsulfanylmethyl)-N-[2-(4-methoxy-benzylidene-hydrazinocarbonyl)-4-(2-piperidin-1-yl-ethoxy)-phenyl]-benzamide] showed an IC50 of 13.1 µM.
In the case of O=C(Nc1ccc(Br)cc1C(=O)N/N=C/c1ccc(Cl)c(C(F)(F)F)c1)c1ccc(CN2CCC(N3CCCCC3)CC2)cc1 [Compound 313, 4-[1,4′]Bipiperidinyl-1′-ylmethyl-N-[4-bromo-2-(4-chloro-3-trifluoromethyl-benzylidene-hydrazinocarbonyl)-phenyl]-benzamide], the IC50 is reported as 1.24 µM.
Compound Cc1ccc(/C=N/NC(=O)c2c(C)csc2NC(=O)c2cccc(CSc3nc[nH]n3)c2)cc1 [Compound 552, N-[4-Methyl-3-(4-methyl-benzylidene-hydrazinocarbonyl)-thiophen-2-yl]-3-(1H-[1,2,4]triazol-3-ylsulfanylmethyl)-benzamide] has an IC50 of 2.63 µM.
CCOCCN(CCOCC)Cc1ccc(C(=O)Nc2ccc(Br)cc2C(=O)N/N=C/c2ccc(Cl)c(C(F)(F)F)c2)cc1 [Compound 738, 4-{[Bis-(2-ethoxy-ethyl)-amino]-methyl}-N-[4-bromo-2-(4-chloro-3-trifluoromethyl-benzylidene-hydrazinocarbonyl)-phenyl]-benzamide] was tested, and the IC50 was 7.55 µM.
Compound COc1ccc(NC(=O)c2cccc(CSCC(O)CO)c2)c(C(=O)N/N=C/c2ccc(C)c(C)c2)c1 (stereo not shown) [Compound 1019, 3-(2,3-Dihydroxy-propylsulfanylmethyl)-N-[2-(3,4-dimethyl-benzylidene-hydrazinocarbonyl)-4-methoxy-phenyl]-benzamide] has an IC50 of 0.41 µM.
With Cc1ccc(/C=N/NC(=O)c2c(C)csc2NC(=O)c2cccc(CSc3nc[nH]n3)c2)cc1C [Compound 551, N-[3-(3,4-Dimethyl-benzylidene-hydrazinocarbonyl)-4-methyl-thiophen-2-yl]-3-(1H-[1,2,4]triazol-3-ylsulfanylmethyl)-benzamide] the IC50 was 0.47 µM.
For COc1ccc(C(=O)Nc2scc(C)c2C(=O)N/N=C/c2ccc(C)cc2)cc1OC [Compound 519, 3,4-Dimethoxy-N-[4-methyl-3-(4-methyl-benzylidene-hydrazinocarbonyl)-thiophen-2-yl]-benzamide], the IC50 was 1.72 µM.
For O=C(Nc1ccccc1C(=O)N/N=C/c1cccc(O)c1)c1ccccc1F [Compound 39, 2-Fluoro-N-[2-(3-hydroxy-benzylidene-hydrazinocarbonyl)-phenyl]-benzamide], the IC50 was 9.24 µM.
Compound Cc1ccc(/C=N/NC(=O)c2cc(Br)ccc2NC(=O)c2ccc(CN3CCC(N4CCCCC4)CC3)cc2)cc1C [Compound 308, 4-[1,4′]Bipiperidinyl-1′-ylmethyl-N-[4-bromo-2-(3,4-dimethyl-benzylidene-hydrazinocarbonyl)-phenyl]-benzamide] has an IC50 of 2.76 µM.
O=C(Nc1cscc1C(=O)N/N=C/c1cccc(F)c1)c1cccc(CN2CCN(CCO)CC2)c1 [Compound 980, N-[4-(3-Fluoro-benzylidene-hydrazinocarbonyl)-thiophen-3-yl]-3-[4-(2-hydroxy-ethyl)-piperazin-1-ylmethyl]-benzamide] was tested, and the IC50 was 13.8 µM.
Compound C/C(=N\NC(=O)c1cc(Br)ccc1NC(=O)c1cccnc1)c1ccc(C)cc1 [Compound 216, N-[4-Bromo-2-(1-p-toluyl-ethylidene-hydrazinocarbonyl)-phenyl]-nicotinamide] has an IC50 of 21.8 µM.
For Cc1ccc(/C=N/NC(=O)c2c(C)csc2NC(=O)c2cccc(CN(C)C)c2)cc1 [Compound 823, 3-Dimethylaminomethyl-N-[4-methyl-3-(4-methyl-benzylidene-hydrazinocarbonyl)-thiophen-2-yl]-benzamide], the IC50 was 6.93 µM.
Cc1csc(NC(=O)c2cccc(CSCCCO)c2)c1C(=O)N/N=C/c1ccc(F)cc1 [Compound 559, N-[3-(4-Fluoro-benzylidene-hydrazinocarbonyl)-4-methyl-thiophen-2-yl]-3-(3-hydroxy-propylsulfanylmethyl)-benzamide] was tested, and the IC50 was 1.26 µM.
O=C(Nc1sc2c(c1C(=O)N/N=C/c1cccc(F)c1)CCC2)c1cccc(CN2CCC(CO)CC2)c1 [Compound 819, N-[3-(3-Fluoro-benzylidene-hydrazinocarbonyl)-5,6-dihydro-4H-cyclopenta[b]thiophen-2-yl]-3-(4-hydroxymethyl-piperidin-1-ylmethyl)-benzamide] was tested, and the IC50 was 5.95 µM.
Cc1ccc(/C=N/NC(=O)c2c(C)csc2NC(=O)c2cccc(CSCCCO)c2)cc1C [Compound 557, N-[3-(3,4-Dimethyl-benzylidene-hydrazinocarbonyl)-4-methyl-thiophen-2-yl]-3-(3-hydroxy-propylsulfanylmethyl)-benzamide] was tested, and the IC50 was < 0.3 µM.
COc1ccc(/C=N/NC(=O)c2c(C)csc2NC(=O)c2cccc(CN3CCC(O)CC3)c2)cc1 [Compound 598, 3-(4-Hydroxy-piperidin-1-ylmethyl)-N-[3-(4-methoxy-benzylidene-hydrazinocarbonyl)-4-methyl-thiophen-2-yl]-benzamide] gave an IC50 of 53 µM.
With CCN(CC)CCN(C)Cc1cccc(C(=O)Nc2c(C)csc2C(=O)N/N=C/c2ccc(Cl)c(C(F)(F)F)c2)c1 [Compound 344, N-[2-(4-Chloro-3-trifluoromethyl-benzylidene-hydrazinocarbonyl)-4-methyl-thiophen-3-yl]-3-{[(2-diethylamino-ethyl)-methyl-amino]-methyl}-benzamide] the IC50 was 31 µM.
In the case of CN(CCO)Cc1ccc(C(=O)Nc2ccc(Cl)cc2C(=O)N/N=C/c2cccc(O)c2)cc1 [Compound 420, N-[4-Chloro-2-(3-hydroxy-benzylidene-hydrazinocarbonyl)-phenyl]-4-{[(2-hydroxy-ethyl)-methyl-amino]-methyl}-benzamide], the IC50 is reported as 27.1 µM.
For O=C(Nc1ccc(Br)cc1C(=O)N/N=C/c1cccc(F)c1)c1cccc(C[S+]([O-])c2nc[nH]n2)c1 (stereo not shown) [Compound 341, N-[4-Bromo-2-(3-fluoro-benzylidene-hydrazinocarbonyl)-phenyl]-3-(1H-[1,2,4]triazole-3-sulfinylmethyl)-benzamide], the IC50 was < 3 µM.
O=C(Nc1ccc(Br)cc1C(=O)N/N=C/c1ccc(F)cc1)c1ccc(CN2CCC(CCO)CC2)cc1 [Compound 743, N-[4-Bromo-2-(4-fluoro-benzylidene-hydrazinocarbonyl)-phenyl]-4-[4-(2-hydroxy-ethyl)-piperidin-1-ylmethyl]-benzamide] gave an IC50 of 14.4 µM.

Same assay, conditions: phosphate uptake, oocytes expressing rat NaPi-2b; 300 μM, determined from inhibition curve
O=C(Nc1ccc(Br)cc1C(=O)N/N=C/c1ccc(F)cc1)c1ccc(CN2CCN(c3ccccn3)CC2)cc1 [Compound 774, N-[4-Bromo-2-(4-fluoro-benzylidene-hydrazinocarbonyl)-phenyl]-4-(4-pyridin-2-yl-piperazin-1-ylmethyl)-benzamide] was tested, and the inhibition at 300 µM was 58.9%.
In the case of COc1ccc(/C=N/NC(=O)c2c(C)csc2NC(=O)c2cccc(CSCCS(=O)(=O)O)c2)cc1 [Compound 785, 2-{3-[3-(4-Methoxy-benzylidene-hydrazinocarbonyl)-4-methyl-thiophen-2-ylcarbamoyl]-benzylsulfanyl}-ethanesulfonic acid], the inhibition at 300 µM is reported as 39.5%.
For CCN(CC)c1ccc(/C=N/NC(=O)c2ccccc2NC(=O)c2ccc(OC)c(OC)c2)cc1 [Compound 241, N-[2-(4-Diethylamino-benzylidene-hydrazinocarbonyl)-phenyl]-3,4-dimethoxy-benzamide], the inhibition at 300 µM was 46.9%.
In the case of O=C(Nc1ccc(Cl)cc1C(=O)N/N=C/c1ccc(F)cc1)c1cccc(CN(CCO)CCO)c1 [Compound 550, 3-{[Bis-(2-hydroxy-ethyl)-amino]-methyl}-N-[4-chloro-2-(4-fluoro-benzylidene-hydrazinocarbonyl)-phenyl]-benzamide], the inhibition at 300 µM is reported as 78.9%.
